Reference: patent publication US4151268A, “Barbituric acid antigens and antibodies specific therefor” (Hoffmann-La Roche Inc., priority 1977, dated 1979)

Tests used:
[1] = tested on: barbituric acid specific antibody (antisera obtained in Example 2); experiment: Comparison runs: recognition of other barbituric acid derivatives and related compounds by the antibody; conditions: at similar concentrations
[2] = tested on: barbituric acid specific antibody (antisera obtained in Example 2); experiment: Radioimmunoassay: competitive inhibition of binding of [C14] pentobarbital to antiserum (ammonium sulfate precipitation); conditions: 4° C., overnight

SMILES: CCCC(C)C1(CC)C(=O)NC(=S)NC1=O (centres unmarked) [thiopental]
- recognition / binding by the antibody [1]: failed to bind

SMILES: CCC1(CC)C(=O)NC(=O)NC1=O [barbital]
- recognition / binding by the antibody [1]: capable of recognizing

SMILES: CN1C(=O)NC(=O)C(C)(C2=CCCCC2)C1=O (centres unmarked) [hexobarbital]
- recognition / binding by the antibody [1]: failed to bind

SMILES: CCCC(C)C1(CC)C(=O)NC(=O)NC1=O (centres unmarked) [pentobarbital]
- recognition / binding by the antibody [1]: capable of recognizing
- Percent inhibition of binding of pentobarbital-C^14 ([2]; 1 nanogram non-radioactive pentobarbital added): 10%
- Percent inhibition of binding of pentobarbital-C^14 ([2]; 5 nanograms non-radioactive pentobarbital added, sample volume 10 μl): 20%
- Percent inhibition of binding of pentobarbital-C^14 ([2]; 10 nanograms non-radioactive pentobarbital added): 28%
- Percent inhibition of binding of pentobarbital-C^14 ([2]; 20 nanograms non-radioactive pentobarbital added): 43%
- Percent inhibition of binding of pentobarbital-C^14 ([2]; 30 nanograms non-radioactive pentobarbital added): 52%
- Percent inhibition of binding of pentobarbital-C^14 ([2]; 40 nanograms non-radioactive pentobarbital added): 63%

SMILES: CCC1(c2ccccc2)C(=O)NC(=O)NC1=O [phenobarbital]
- recognition / binding by the antibody [1]: capable of recognizing
